Several values for one entry are separate records, joined by “and”; a condition that tells them apart may be missing. Equal values may be shown once. Read-outs that look alike come from different tables or passages of the source.
Key:
[1] = Ames tests (mutagenicity and toxicity), with or without rat liver metabolic activation system S9; type: cell-based
Text: Among the important criteria for topically applied sunscreens, safety in use has the highest priority. It was thus necessary to investigate the mutagenicity of the maleimide and maleamic acid derivatives of sunscreens. Six compounds of the present invention were chosen as representative of the main classes of sunscreen and submitted for Ames tests.

[2] = UV absorption of the chromophore (λmax, ε); type: physicochemical; design: key to λmax: λmax in nm; conditions: for ε: at λmax, in M-1·cm-1 (unit assumed)
Text: This can sometimes be a problem since if the change in λmax is too great, the chromophore may no longer absorb light in the UVA or UVB wavelength range.
An example of this change is 4-aminobenzophenone which has a λmax of 318 nm which is in the UVB range. When the amino group is replaced by a maleamic acid group, the λmax of the chromophore shifts to 306 nm which is still within the UVB range but when the amino group is replaced by a maleimide residue, the λmax falls to 258 nm. This is outside the range of UVB although there is a restoration of UVB activity when the maleimide is reacted with cysteine as it would be when applied to the skin (λmax=293 nm). The changes are easily rationalised on the basis of conjugative effects but the effects of attaching Michael acceptors to the various chromophores which may be used cannot always easily be predicted. This problem can be overcome to a large extent simply by separating the chromophore from the Michael acceptor using a spacer. Particularly useful compounds therefore include those in which the group R is C1 -C8 alkyl-YZ, C2 -C8 alkenyl-YZ or C2 -C8 alkynyl-YZR and especially those in which Y is O. Compounds in which a hexyloxy linker is used (that is, R is (CH2)6 OZ) are especially preferred.

[3] = background, known sunscreen absorbers; cited from earlier work
[4] = Reaction of maleimide derivatives with L-cysteine ethyl ester (tlc); conditions: room temperature
Procedure: In order to underpin the principle of reaction of maleimido derivatives with the cysteine thiol groups, two model reactions were studied. Thus the reactions between L-cysteine ethyl ester and N-phenylmaleimide and N-(4-benzoylphenyl)maleimide were carried out. In each case, the reaction produced the diastereoisomeric product mixtures in reasonable yields at room temperature. All starting maleimides had reacted within 30 minutes (tlc). The two products were isolated and characterised.
The mildness and rapidity of these reactions indicate that the maleimido groups confer the ability for reaction with the nucleophilic groups of keratin.

[5] = system: hair keratin; test: Substantivity test with human hair (uv assay of supernatant); type: binding
Procedure: Initial tests were conducted with human hair specially cleaned and prepared to provide as near to a standard substrate as possible. The method adopted utilised the reduction in ultra-violet absorptivity in the supernatant solution in contact with hair when the compound under test was absorbed into the hair surface. Standard and control solutions were employed. […] Similar tests with hair have been quoted in the patent literature as evidence, and as a standard test, for substantivity of sunscreens and other cosmetics.

[6] = system: horn hoof keratin; test: Substantivity test with powdered horn-hoof keratin (uv absorptivity); type: binding, various animals
Text: Keratin prepared from the horns and hooves of various animals is commercially available, and this was used in a similar way to the hair (above). The keratin was finely powdered and stirred with a solution of the maleimido compound and its substantivity estimated by uv absorptivity measurements.

[7] = system: DNA; conditions: cited from earlier work
[8] = effect of attaching Michael acceptor to 4-aminobenzophenone chromophore
[9] = characterisation in the Examples, solvent not stated
[10] = uv assay, 1.0000 g hair, single tests (0.4520 g and 0.4670 g maleimide added)
[11] = 1.0000 g horn hoof keratin, single tests (0.4360 g and 0.4741 g maleimide added)
[12] = horn hoof keratin, average of the two tests

O=C(O)c1ccc(N2C(=O)C=CC2=O)cc1 [Example 2, N-(4-carboxyphenyl)maleimide]
Toxicity ([1]; +S9): 500 μG plate^-1 | Toxicity ([1]; -S9): 500 μG plate^-1

NC(CSC1CC(=O)N(c2ccc(C(=O)c3ccccc3)cc2)C1=O)C(=O)O (centres unmarked) [maleimide reacted with cysteine]
λmax [2, 8]: 293 nm

CCCCC(CC)COC(=O)C=Cc1ccc(OC)cc1 (centres unmarked) [2-ethylhexyl-4'-methoxycinnamate]
λmax [3]: 308 nm

COc1ccc(C(=O)CC(=O)c2ccc(C(C)(C)C)cc2)cc1 [4-^t butyl-4'-methoxydibenzoylmethane]
λmax [3]: 355 nm

O=C(c1ccccc1)c1ccc(N2C(=O)C=CC2=O)cc1 [Example 4, N-(4-benzoylphenyl)maleimide]
Toxicity ([1]; +S9): 100 μG plate^-1 | Toxicity ([1]; -S9): 40 μG plate^-1 | time within which all starting maleimide had reacted [4]: ≤ 30 min | λmax [2, 8]: 258 nm

O=C(O)/C=C\C(=O)Nc1ccc(C(=O)c2ccccc2)cc1 [Example 3, N-(4-benzoylphenyl)maleamic Acid]
Toxicity ([1]; +S9): 2500 μG plate^-1 | Toxicity ([1]; -S9): 2500 μG plate^-1 | Mutagenicity ([1]; Ames test, with or without S9): Negative | ε ([2]; solvent not stated): 20560 | λmax [2, 9]: 306 nm | λmax [2, 8]: 306 nm

CCN1C(=O)C=CC1=O
Toxicity ([1]; +S9): 50 μG plate^-1 | Toxicity ([1]; -S9): 25 μG plate^-1

CCCCOC(=O)c1ccc(N2C(=O)C=CC2=O)cc1 [Example 10, N-(4-n-butyloxycarbonylphenyl)maleimide]
ε ([2]; solvent not stated): 15563 | λmax ([2]; characterisation in Example 10, unit not given): 245

O=C(O)/C=C/c1ccc(N2C(=O)C=CC2=O)cc1 [Example 6, N-[4-(2-carboxy-(E)-ethenyl)phenyl]maleimide]
Toxicity ([1]; +S9): 200 μG plate^-1 | Toxicity ([1]; -S9): 200 μG plate^-1

O=C(O)/C=C\C(=O)Nc1ccc(C(=O)O)cc1 [Example 1, N-(4-carboxyphenyl)maleamic Acid]
Toxicity ([1]; +S9): 5000 μG plate^-1 | Toxicity ([1]; -S9): 5000 μG plate^-1

O=C(O)/C=C\C(=O)NCCCCCCOc1ccc(C(=O)c2ccccc2)cc1 [Example 11, N-[6-(4-benzoylphenoxy)-hexyl]-maleamic Acid]
Toxicity ([1]; +S9): 2500 μG plate^-1 | Toxicity ([1]; -S9): 2500 μG plate^-1 | λmax ([2]; CH2 Cl2): 285 nm | ε ([2]; CH2 Cl2): 16047

O=C(c1ccccc1)c1ccc(OCCCCCCN2C(=O)C=CC2=O)cc1 [Example 12, N-[6-(4-benzoylphenoxy)-hexyl]-maleimide]
Toxicity ([1]; +S9): 800 μG plate^-1 | Toxicity ([1]; -S9): 200 μG plate^-1 | λmax ([2]; CH2 Cl2): 286 nm | ε ([2]; CH2 Cl2): 16590

Nc1ccc(C(=O)c2ccccc2)cc1 [4-aminobenzophenone, reference compound]
λmax [2, 8]: 318 nm

CCCCOC(=O)c1ccc(NC(=O)/C=C\C(=O)O)cc1 [Example 9, N-(4-n-butyloxycarbonylphenyl)maleamic Acid]
ε ([2]; solvent not stated): 15806 | λmax [2, 9]: 294 nm

O=C1C=CC(=O)N1c1ccccc1 [N-phenylmaleimide]
Average substantivity ([5]; hair, average of the two tests): 24.5% | Average wt maleimide absorbed ([5]; hair, average of the two tests): 0.1129 g | reduction in ultra-violet absorptivity of supernatant in contact with hair ([5]; initial tests, in words): considerable reduction in absorptivity | Substantivity [5, 10]: 18.5% and 30.4% | Wt maleimide absorbed [5, 10]: 0.0837 g and 0.1421 g | time within which all starting maleimide had reacted [4]: ≤ 30 min | Substantivity [6, 11]: 22.2% and 21.1% | Wt maleimide absorbed [6, 11]: 0.0968 g and 0.1001 g | Average substantivity [6, 12]: 21.7% | Average wt maleimide absorbed [6, 12]: 0.0985 g

COc1c2ccoc2cc2oc(=O)ccc12 [5-methoxypsoralen (5-MOP), 5-methoxypsoralen]
photobinding to DNA [7]: photobinds to DNA | photocarcinogenicity [7]: photocarcinogen | photomutagenicity [7]: photomutagen

COC(=O)c1ccc(N2C(=O)C=CC2=O)cc1 [Example 8, N-(4-methoxycarbonylphenyl)maleimide]
ε ([2]; solvent not stated): 15844 | λmax [2, 9]: 245 nm

O=C(O)/C=C\C(=O)Nc1ccc(/C=C/C(=O)O)cc1 [Example 5, N-[4-(2-carboxy-(E)-ethenyl)phenyl]maleamic Acid]
Toxicity ([1]; +S9): 5000 μG plate^-1 | Toxicity ([1]; -S9): 5000 μG plate^-1

COC(=O)c1ccc(NC(=O)/C=C\C(=O)O)cc1 [Example 7, N-(4-methoxycarbonylphenyl)maleamic Acid]
ε ([2]; solvent not stated): 16013 | λmax [2, 9]: 294 nm

Source: US5877204A, “Compounds containing a michael-acceptor, especially maleimide or maleic acid derivatives, directly or indirectly linked to a chromophore and their use in long lasting sunscreen compositions” (Vanguard Medica Limited, priority 1994, dated 1999)
